Reference: PubChem BioAssay (NCI)
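All cell lines were grown in 96-well plates and treated with compound for 48 hours. GI50 is the concentration that inhibits growth by half. At the TGI there is no net growth.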

Columns and labels:
Assay in all cases: NCI tumour cell line growth inhibition, 48 h
786-0 renal = test system: 786-0 renal
A549 NSCLC = test system: A549 NSCLC
ACHN renal = test system: ACHN renal
BT-549 breast = test system: BT-549 breast
CAKI-1 renal = test system: CAKI-1 renal
CCRF-CEM leukemia = test system: CCRF-CEM leukemia
COLO 205 colon = test system: COLO 205 colon
DU-145 prostate = test system: DU-145 prostate
EKVX NSCLC = test system: EKVX NSCLC
HCC-2998 colon = test system: HCC-2998 colon
HCT-116 colon = test system: HCT-116 colon
HCT-15 colon = test system: HCT-15 colon
HL-60(TB) leukemia = test system: HL-60(TB) leukemia
HOP-62 NSCLC = test system: HOP-62 NSCLC
HOP-92 NSCLC = test system: HOP-92 NSCLC
HS 578T breast = test system: HS 578T breast
HT29 colon = test system: HT29 colon
IGROV1 ovarian = test system: IGROV1 ovarian
K-562 leukemia = test system: K-562 leukemia
KM12 colon = test system: KM12 colon
LOX IMVI melanoma = test system: LOX IMVI melanoma
M14 melanoma = test system: M14 melanoma
MALME-3M melanoma = test system: MALME-3M melanoma
MCF7 breast = test system: MCF7 breast
MDA-MB-231 breast = test system: MDA-MB-231 breast
MDA-MB-435 = test system: MDA-MB-435
MOLT-4 leukemia = test system: MOLT-4 leukemia
NCI-H226 lung = test system: NCI-H226 lung
NCI-H23 lung = test system: NCI-H23 lung
NCI-H460 lung = test system: NCI-H460 lung
NCI-H522 lung = test system: NCI-H522 lung
NCI/ADR-RES ovarian = test system: NCI/ADR-RES ovarian
OVCAR-3 ovarian = test system: OVCAR-3 ovarian
OVCAR-4 ovarian = test system: OVCAR-4 ovarian
OVCAR-5 ovarian = test system: OVCAR-5 ovarian
OVCAR-8 ovarian = test system: OVCAR-8 ovarian
PC-3 prostate = test system: PC-3 prostate
RPMI-8226 leukemia = test system: RPMI-8226 leukemia
RXF 393 renal = test system: RXF 393 renal
SF-268 CNS = test system: SF-268 CNS
SF-295 CNS = test system: SF-295 CNS
SF-539 CNS = test system: SF-539 CNS
SK-MEL-2 melanoma = test system: SK-MEL-2 melanoma
SK-MEL-28 melanoma = test system: SK-MEL-28 melanoma
SK-MEL-5 melanoma = test system: SK-MEL-5 melanoma
SK-OV-3 ovarian = test system: SK-OV-3 ovarian
SN12C renal = test system: SN12C renal
SNB-19 CNS = test system: SNB-19 CNS
SNB-75 CNS = test system: SNB-75 CNS
SR leukemia = test system: SR leukemia
SW-620 colon = test system: SW-620 colon
T-47D breast = test system: T-47D breast
TK-10 renal = test system: TK-10 renal
U251 CNS = test system: U251 CNS
UACC-257 melanoma = test system: UACC-257 melanoma
UACC-62 melanoma = test system: UACC-62 melanoma
UO-31 renal = test system: UO-31 renal

**Q.** Which results are given for `CCN(CC)CCOc1ccc(/C(=C(\C)c2ccc(F)c(OC)c2)c2ccc(Cl)cc2)cc1`?
**A.** GI50 (786-0 renal): 2700 nM; TGI (786-0 renal): 5110 nM; GI50 (A549 NSCLC): 2610 nM; TGI (A549 NSCLC): 5630 nM; GI50 (ACHN renal): 2700 nM; TGI (ACHN renal): 5310 nM; GI50 (BT-549 breast): 2670 nM; TGI (BT-549 breast): 5130 nM; GI50 (CAKI-1 renal): 2420 nM; TGI (CAKI-1 renal): 4610 nM; GI50 (CCRF-CEM leukemia): 2960 nM; TGI (CCRF-CEM leukemia): 8550 nM; GI50 (COLO 205 colon): 1820 nM; TGI (COLO 205 colon): 4510 nM; GI50 (DU-145 prostate): 2510 nM; TGI (DU-145 prostate): 5280 nM; GI50 (EKVX NSCLC): 2460 nM; TGI (EKVX NSCLC): 5390 nM; GI50 (HCC-2998 colon): 2170 nM; TGI (HCC-2998 colon): 4360 nM; GI50 (HCT-116 colon): 2240 nM; TGI (HCT-116 colon): 4860 nM; GI50 (HCT-15 colon): 1080 nM; TGI (HCT-15 colon): 3390 nM; GI50 (HL-60(TB) leukemia): 2690 nM; TGI (HL-60(TB) leukemia): 6430 nM; GI50 (HOP-62 NSCLC): 2510 nM; TGI (HOP-62 NSCLC): 4990 nM; GI50 (HOP-92 NSCLC): 1300 nM; TGI (HOP-92 NSCLC): 3680 nM; GI50 (HS 578T breast): 2420 nM; TGI (HS 578T breast): 5840 nM; GI50 (HT29 colon): 582 nM; TGI (HT29 colon): 2870 nM; GI50 (IGROV1 ovarian): 2450 nM; TGI (IGROV1 ovarian): 5400 nM; GI50 (K-562 leukemia): 855 nM; TGI (K-562 leukemia): 6000 nM; GI50 (KM12 colon): 2270 nM; TGI (KM12 colon): 4730 nM; GI50 (LOX IMVI melanoma): 2460 nM; TGI (LOX IMVI melanoma): 4660 nM; GI50 (M14 melanoma): 2810 nM; TGI (M14 melanoma): 5640 nM; GI50 (MALME-3M melanoma): 2090 nM; TGI (MALME-3M melanoma): 4700 nM; GI50 (MCF7 breast): 2170 nM; TGI (MCF7 breast): 4740 nM; GI50 (MDA-MB-231 breast): 2540 nM; TGI (MDA-MB-231 breast): 4800 nM; GI50 (MDA-MB-435): 2430 nM; TGI (MDA-MB-435): 4610 nM; GI50 (MOLT-4 leukemia): 2490 nM; TGI (MOLT-4 leukemia): 6860 nM; GI50 (NCI-H226 lung): 2530 nM; TGI (NCI-H226 lung): 5140 nM; GI50 (NCI-H23 lung): 2390 nM; TGI (NCI-H23 lung): 4970 nM; GI50 (NCI-H460 lung): 2070 nM; TGI (NCI-H460 lung): 4240 nM; GI50 (NCI-H522 lung): 2730 nM; TGI (NCI-H522 lung): 5790 nM; GI50 (NCI/ADR-RES ovarian): 2360 nM; TGI (NCI/ADR-RES ovarian): 4690 nM; GI50 (OVCAR-3 ovarian): 2260 nM; TGI (OVCAR-3 ovarian): 4600 nM; GI50 (OVCAR-4 ovarian): 2100 nM; TGI (OVCAR-4 ovarian): 4450 nM; GI50 (OVCAR-5 ovarian): 2400 nM; TGI (OVCAR-5 ovarian): 4830 nM; GI50 (OVCAR-8 ovarian): 2580 nM; TGI (OVCAR-8 ovarian): 5370 nM; GI50 (PC-3 prostate): 2110 nM; TGI (PC-3 prostate): 4620 nM; GI50 (RPMI-8226 leukemia): 2600 nM; TGI (RPMI-8226 leukemia): 6300 nM; GI50 (RXF 393 renal): 2180 nM; TGI (RXF 393 renal): 4360 nM; GI50 (SF-268 CNS): 2690 nM; TGI (SF-268 CNS): 5820 nM; GI50 (SF-295 CNS): 2610 nM; TGI (SF-295 CNS): 4980 nM; GI50 (SF-539 CNS): 2450 nM; TGI (SF-539 CNS): 4740 nM; GI50 (SK-MEL-2 melanoma): 2800 nM; TGI (SK-MEL-2 melanoma): 5510 nM; GI50 (SK-MEL-28 melanoma): 2440 nM; TGI (SK-MEL-28 melanoma): 4710 nM; GI50 (SK-MEL-5 melanoma): 2810 nM; TGI (SK-MEL-5 melanoma): 5210 nM; GI50 (SK-OV-3 ovarian): 2970 nM; TGI (SK-OV-3 ovarian): 5730 nM; GI50 (SN12C renal): 2380 nM; TGI (SN12C renal): 4640 nM; GI50 (SNB-19 CNS): 2830 nM; TGI (SNB-19 CNS): 5170 nM; GI50 (SNB-75 CNS): 2020 nM; TGI (SNB-75 CNS): 4840 nM; GI50 (SR leukemia): 2010 nM; TGI (SR leukemia): 6910 nM; GI50 (SW-620 colon): 2120 nM; TGI (SW-620 colon): 4280 nM; GI50 (T-47D breast): 2410 nM; TGI (T-47D breast): 5860 nM; GI50 (TK-10 renal): 2560 nM; TGI (TK-10 renal): 5310 nM; GI50 (U251 CNS): 2230 nM; TGI (U251 CNS): 4740 nM; GI50 (UACC-257 melanoma): 2180 nM; TGI (UACC-257 melanoma): 4670 nM; GI50 (UACC-62 melanoma): 2710 nM; TGI (UACC-62 melanoma): 5060 nM; GI50 (UO-31 renal): 1890 nM; TGI (UO-31 renal): 3960 nM
